Here are results for eleven molecules from PubChem BioAssay (NCI).

“And” between values parts separate entries of the source, which are not always exact repeats. Equal entries are not always repeated.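 In this assay, cells in 96-well plates receive the compound at five concentrations for 48 hours. Endpoints are linearly interpolated between the surrounding concentrations. GI50: concentration for 50% inhibition of growth. TGI denotes the concentration required for complete inhibition of growth.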 A value given as a limit tells only on which side of the number the result lay.

The test system of one experiment is RXF 393 renal. Briefly: DTP human tumour cell line panel, 48 h.
The term GI50 denotes the concentration that inhibits growth by half. As usually defined, the TGI is the concentration giving total growth inhibition. Low readings indicate greater sensitivity of the cells, high ones lower sensitivity of the cells. As for `COc1ccc2c(c1)C(C)Cc1c(ncnc1-n1c(C)nc3ccccc31)N2C` (stereo not given), the GI50 is 2.83 µM and the TGI amounted to 9.21 µM.

Take `COc1ccc2[nH]c3c4c(ccc3c2c1)C(=O)C=CC4=O`: the TGI is 6.88 µM.

For `COc1cc(C2=C(c3cn(C)c4ccccc34)COC2=O)cc(OC)c1OC`, the GI50 is 0.133 µM and the TGI amounted to 0.555 µM.

Take `CCOC(=O)CNC(=O)c1ccccc1Nc1ccnc(C(F)(F)F)c1`: the GI50 was 31.3 µM and the TGI was above 64.4 µM.

As to `COc1cc2c(c(OC)n1)[C@]1(O)[C@H](O)[C@H](CN(C)C)[C@@H](c3ccccc3)[C@]1(c1ccc(C#N)cc1)O2`, the GI50 was 0.0359 µM and 0.0195 µM; the TGI is 0.502 µM and 0.103 µM.

As to `C=CCSS/C=C/CS(=O)CC=C` (stereo not given), the total growth inhibition concentration (TGI) is 55.6 µM.

On to `O=C(/C=C/c1cc(CN2CCOCC2)c(O)c2ncccc12)c1cc(CN2CCOCC2)c(O)c2ncccc12`, for which the GI50 was 0.14 µM and the TGI turned out to be 14.3 µM.

As to `[Au+].[Au+].[Au+].[c-]1nccn1Cc1ccccc1.[c-]1nccn1Cc1ccccc1.[c-]1nccn1Cc1ccccc1`, the GI50 was 2.03 µM and the TGI turned out to be 5.8 µM.

Consider `C=C1C(=O)O[C@H]2[C@H]1CC/C(COC(=O)c1ccc(Cl)nc1)=C\CC[C@@]1(C)O[C@@H]21`, for which the GI50 was 1.04 µM and the total growth inhibition concentration (TGI) came to 2.31 µM.

`COc1cc2ncn(-c3cc(OCCc4ccccc4)c(C(N)=O)s3)c2cc1OC`: the GI50 is 9.53 µM and the total growth inhibition concentration (TGI) was above 25 µM.

`COc1ccc(OC)c2c(/C=C/c3ccc(N(C)C)cc3)ccnc12`: the TGI is above 10 µM.

The subject of another experiment is DU-145 prostate. Nature of the experiment: DTP human tumour cell line panel, 48 h.
Take `COc1ccc2c(c1)C(C)Cc1c(ncnc1-n1c(C)nc3ccccc31)N2C` (stereo not given): the GI50 was 3.27 µM and the TGI was found to be 13.4 µM.

`COc1ccc2[nH]c3c4c(ccc3c2c1)C(=O)C=CC4=O` registered a TGI above 100 µM.

With `COc1cc(C2=C(c3cn(C)c4ccccc34)COC2=O)cc(OC)c1OC`, the GI50 is 0.211 µM and the TGI is above 100 µM.

For the molecule `CCOC(=O)CNC(=O)c1ccccc1Nc1ccnc(C(F)(F)F)c1`, the GI50 is 46.9 µM and the TGI amounted to 99.8 µM.

For `COc1cc2c(c(OC)n1)[C@]1(O)[C@H](O)[C@H](CN(C)C)[C@@H](c3ccccc3)[C@]1(c1ccc(C#N)cc1)O2`, the concentration for 50% growth inhibition (GI50) is 0.0191 µM and < 0.0136 µM; the total growth inhibition concentration (TGI) was 3.45 µM and 3.69 µM.

As to `C=CCSS/C=C/CS(=O)CC=C` (stereo not given), the TGI is above 100 µM.

In the case of `O=C(/C=C/c1cc(CN2CCOCC2)c(O)c2ncccc12)c1cc(CN2CCOCC2)c(O)c2ncccc12`, the GI50 was below 0.0219 µM and the TGI was above 100 µM.

For `[Au+].[Au+].[Au+].[c-]1nccn1Cc1ccccc1.[c-]1nccn1Cc1ccccc1.[c-]1nccn1Cc1ccccc1`, the GI50 was 17.7 µM and the TGI was 32.4 µM.

Turning to `C=C1C(=O)O[C@H]2[C@H]1CC/C(COC(=O)c1ccc(Cl)nc1)=C\CC[C@@]1(C)O[C@@H]21`, the GI50 is 1.75 µM and the TGI was found to be 4.01 µM.

As for `COc1cc2ncn(-c3cc(OCCc4ccccc4)c(C(N)=O)s3)c2cc1OC`, the GI50 was above 23.2 µM and the TGI was above 25 µM.

In the case of `COc1ccc(OC)c2c(/C=C/c3ccc(N(C)C)cc3)ccnc12`, the TGI is above 10 µM.

Another experiment concerns HOP-92 NSCLC. Briefly: DTP human tumour cell line panel, 48 h.
Regarding `COc1ccc2c(c1)C(C)Cc1c(ncnc1-n1c(C)nc3ccccc31)N2C` (stereo not given), the GI50 was 3.34 µM and the TGI was determined as 17.4 µM.

With `COc1ccc2[nH]c3c4c(ccc3c2c1)C(=O)C=CC4=O`, the TGI came to 7.64 µM.

For the molecule `COc1cc(C2=C(c3cn(C)c4ccccc34)COC2=O)cc(OC)c1OC`, the GI50 is 0.249 µM and the TGI came to 4.91 µM.

As to `CCOC(=O)CNC(=O)c1ccccc1Nc1ccnc(C(F)(F)F)c1`, the GI50 is 0.0572 µM and the concentration for total growth inhibition (TGI) is 7.62 µM.

As to `COc1cc2c(c(OC)n1)[C@]1(O)[C@H](O)[C@H](CN(C)C)[C@@H](c3ccccc3)[C@]1(c1ccc(C#N)cc1)O2`, the GI50 is 0.0521 µM and 0.0346 µM; the TGI was 4.3 µM and 0.991 µM.

In turn, `C=CCSS/C=C/CS(=O)CC=C` (stereo not given) came in with a concentration for total growth inhibition (TGI) above 100 µM.

Consider `O=C(/C=C/c1cc(CN2CCOCC2)c(O)c2ncccc12)c1cc(CN2CCOCC2)c(O)c2ncccc12`, for which the GI50 is 0.0292 µM and the TGI came to 0.525 µM.

With `[Au+].[Au+].[Au+].[c-]1nccn1Cc1ccccc1.[c-]1nccn1Cc1ccccc1.[c-]1nccn1Cc1ccccc1`, the GI50 is 2.34 µM and the TGI turned out to be 4.25 µM.

With `C=C1C(=O)O[C@H]2[C@H]1CC/C(COC(=O)c1ccc(Cl)nc1)=C\CC[C@@]1(C)O[C@@H]21`, the GI50 is 2.18 µM and the TGI is 4.84 µM.

For `COc1cc2ncn(-c3cc(OCCc4ccccc4)c(C(N)=O)s3)c2cc1OC`, the GI50 was 19.6 µM and the TGI was above 25 µM.

In the case of `COc1ccc(OC)c2c(/C=C/c3ccc(N(C)C)cc3)ccnc12`, the TGI is above 10 µM.

The subject of a further experiment is A549 NSCLC. Briefly: DTP human tumour cell line panel, 48 h.
In the case of `COc1ccc2c(c1)C(C)Cc1c(ncnc1-n1c(C)nc3ccccc31)N2C` (stereo not given), the GI50 was 4.82 µM and the TGI stood at 24.7 µM.

For the molecule `COc1ccc2[nH]c3c4c(ccc3c2c1)C(=O)C=CC4=O`, the TGI worked out at 62.8 µM.

For the molecule `COc1cc(C2=C(c3cn(C)c4ccccc34)COC2=O)cc(OC)c1OC`, the GI50 is 0.1 µM and the TGI is above 25.6 µM.

For `CCOC(=O)CNC(=O)c1ccccc1Nc1ccnc(C(F)(F)F)c1`, the GI50 is above 53.5 µM and the TGI is above 100 µM.

In the case of `COc1cc2c(c(OC)n1)[C@]1(O)[C@H](O)[C@H](CN(C)C)[C@@H](c3ccccc3)[C@]1(c1ccc(C#N)cc1)O2`, the concentration for 50% growth inhibition (GI50) is below 0.01 µM; the concentration for total growth inhibition (TGI) was 8.42 µM and 8.64 µM.

In turn, `C=CCSS/C=C/CS(=O)CC=C` (stereo not given) had a TGI above 100 µM.

For the molecule `O=C(/C=C/c1cc(CN2CCOCC2)c(O)c2ncccc12)c1cc(CN2CCOCC2)c(O)c2ncccc12`, the concentration for 50% growth inhibition (GI50) was 0.0285 µM and the TGI is above 100 µM.

As to `[Au+].[Au+].[Au+].[c-]1nccn1Cc1ccccc1.[c-]1nccn1Cc1ccccc1.[c-]1nccn1Cc1ccccc1`, the GI50 was 24.7 µM and the TGI is 65.4 µM.

Consider `C=C1C(=O)O[C@H]2[C@H]1CC/C(COC(=O)c1ccc(Cl)nc1)=C\CC[C@@]1(C)O[C@@H]21`, for which the GI50 was 11.3 µM and the TGI was 26.2 µM.

Consider `COc1cc2ncn(-c3cc(OCCc4ccccc4)c(C(N)=O)s3)c2cc1OC`, for which the GI50 is above 25 µM and the total growth inhibition concentration (TGI) was above 25 µM.

`COc1ccc(OC)c2c(/C=C/c3ccc(N(C)C)cc3)ccnc12` registered a TGI above 10 µM.

Another experiment deals with PC-3 prostate. Nature of the experiment: DTP human tumour cell line panel, 48 h.
Take `COc1ccc2c(c1)C(C)Cc1c(ncnc1-n1c(C)nc3ccccc31)N2C` (stereo not given): the GI50 was 3.25 µM and the total growth inhibition concentration (TGI) turned out to be 27.3 µM.

In the case of `COc1ccc2[nH]c3c4c(ccc3c2c1)C(=O)C=CC4=O`, the total growth inhibition concentration (TGI) was 33.8 µM.

As for `COc1cc(C2=C(c3cn(C)c4ccccc34)COC2=O)cc(OC)c1OC`, the GI50 was 0.125 µM and the TGI was 53.8 µM.

For the molecule `CCOC(=O)CNC(=O)c1ccccc1Nc1ccnc(C(F)(F)F)c1`, the GI50 was 25.4 µM and the TGI is above 95.5 µM.

As to `COc1cc2c(c(OC)n1)[C@]1(O)[C@H](O)[C@H](CN(C)C)[C@@H](c3ccccc3)[C@]1(c1ccc(C#N)cc1)O2`, the GI50 is 0.0223 µM and < 0.0116 µM; the TGI was 10.7 µM and 2.39 µM.

Take `C=CCSS/C=C/CS(=O)CC=C` (stereo not given): the TGI is above 100 µM.

`O=C(/C=C/c1cc(CN2CCOCC2)c(O)c2ncccc12)c1cc(CN2CCOCC2)c(O)c2ncccc12`: the GI50 was 0.05 µM and the TGI is above 100 µM.

Take `[Au+].[Au+].[Au+].[c-]1nccn1Cc1ccccc1.[c-]1nccn1Cc1ccccc1.[c-]1nccn1Cc1ccccc1`: the GI50 is 17.4 µM and the total growth inhibition concentration (TGI) worked out at 34.4 µM.

`C=C1C(=O)O[C@H]2[C@H]1CC/C(COC(=O)c1ccc(Cl)nc1)=C\CC[C@@]1(C)O[C@@H]21`: the GI50 was 10.2 µM and the TGI worked out at 23.1 µM.

Consider `COc1cc2ncn(-c3cc(OCCc4ccccc4)c(C(N)=O)s3)c2cc1OC`, for which the GI50 is above 25 µM and the TGI is above 25 µM.

Turning to `COc1ccc(OC)c2c(/C=C/c3ccc(N(C)C)cc3)ccnc12`, the TGI was above 10 µM.
